Here are results for one compound from patent US20240116985A1, “STAPLED PEPTIDES AND METHODS THEREOF” (priority 2020, published 2024).

Molecules are shown by their SMILES. ≈ marks a conversion by molar mass, not a printed value. Where two headings read alike, the source gives them in different places.

The test system of one series is Axin2 and Myc. In words: Gene expression in cells (FIG. 1). The format is cell-based. An excerpt:
FIG. 1. Provided agents can modulate gene expression in cells.

The subject of a further series is PLOD2 and LCOR. The experiment in a line: Expression of beta-catenin-independent genes (FIG. 2). The format is cell-based.
The subject of a further series is DLD1. The experiment in a line: Reporter assay (e.g., DLD1 reporter assay) (FIG. 3). The conditions noted are these: compared to a control peptide I-796. The format is cell-based. An excerpt: FIG. 3. Provided technologies can effectively modulate expression.
Various technologies can be utilized for characterizing and/or assessing provided technologies (e.g., agents (e.g., various peptides), compositions, methods, etc.) in accordance with the present disclosure. As described herein, in some embodiments, a useful technology is or comprises fluorescence polarization. In some embodiments, a useful technology assesses Log P or Log D. In some embodiments, a useful technology is or comprises a CHI Log D assay. In some embodiments, a useful technology assesses solubility. In some embodiments, a useful technology is or comprises NanoBRET. In some embodiments, a useful technology is or comprises a reporter assay (e.g., DLD1 reporter assay). In some embodiments, a useful technology is or comprises alphascreen. Certain useful protocols are described in the Examples. Those skilled in the art appreciate that suitable adjustments may be made to such protocols, e.g., according to specific conditions, agents, purposes, etc.
(In general: Reporter assays use an easily measured gene product as a stand-in for the process of interest.)

Series [1] deals with T1, full-length beta-Catenin (Uniprot ID P35222) (Homo sapiens, UniProt P35222).
T1 construct: 10 nM full-length beta-Catenin (Uniprot ID P35222)
T1 sequence (P35222 1-781): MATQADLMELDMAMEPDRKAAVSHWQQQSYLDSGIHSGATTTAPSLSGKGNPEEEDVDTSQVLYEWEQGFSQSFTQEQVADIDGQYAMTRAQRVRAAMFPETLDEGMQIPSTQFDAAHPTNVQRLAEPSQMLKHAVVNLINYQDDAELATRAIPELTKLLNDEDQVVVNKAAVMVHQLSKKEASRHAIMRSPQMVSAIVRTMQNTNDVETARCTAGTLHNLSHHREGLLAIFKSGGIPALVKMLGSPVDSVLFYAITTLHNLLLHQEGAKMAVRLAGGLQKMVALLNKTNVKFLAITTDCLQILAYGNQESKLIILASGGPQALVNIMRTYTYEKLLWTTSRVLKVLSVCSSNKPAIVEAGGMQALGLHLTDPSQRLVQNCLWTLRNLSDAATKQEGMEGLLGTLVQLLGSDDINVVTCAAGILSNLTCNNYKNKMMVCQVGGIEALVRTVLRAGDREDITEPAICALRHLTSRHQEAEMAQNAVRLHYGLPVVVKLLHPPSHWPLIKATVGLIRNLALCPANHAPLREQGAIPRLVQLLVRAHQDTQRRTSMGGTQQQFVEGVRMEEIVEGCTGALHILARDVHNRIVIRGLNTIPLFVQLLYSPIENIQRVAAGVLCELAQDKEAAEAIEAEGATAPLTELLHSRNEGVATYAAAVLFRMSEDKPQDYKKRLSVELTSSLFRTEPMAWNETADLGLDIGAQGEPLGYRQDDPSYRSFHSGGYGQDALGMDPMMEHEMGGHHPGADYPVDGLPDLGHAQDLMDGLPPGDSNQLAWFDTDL
The experiment in a line: Fluorescence polarization IC50 (beta-catenin / 5FAM-TCF4 10-53 competition). The format is binding. (In general: Fluorescence polarisation rises when a labelled molecule tumbles more slowly, as on binding a larger partner.)

The nature of a further series: CHI Log D procedure. The series is classed as physicochemical. The conditions noted are these: pH 7.4.
Another series in a line: Solubility in PBS. The format is physicochemical. Summed up: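 Solubility is derived from HPLC peak areas: the ratio of the PBS supernatant peak to a 50 μM DMSO peptide peak, times 50 uM.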
Series [2] deals with T2, beta-catenin/TCF4 engagement (Homo sapiens, UniProt P35222).
T2 construct: expressed in transfected cells; host or cells: HEK293
T2 sequence (P35222 1-781): T1 sequence (P35222 1-781)
The experiment in a line: Nano-BRET target engagement assay (B-cat-Halo & TCF4-Luc in HEK293 cells). The series is classed as cell-based. Background: Bioluminescence resonance energy transfer reports proximity on the nanometre scale.

The subject of series [3] is TCF/LEF luciferase Reporter in DLD1 cells. The experiment in a line: TCF reporter assay (DLD1 TCF/LEF luciferase reporter, Bright-Glo). The format is cell-based. To be noted: read-out: TCF Reporter Assay Abs IC50. Summed up: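 DLD1 cells stably carrying a TCF/LEF luciferase reporter were plated at 5000 cells/well in RPMI + 4% FBS and treated overnight with a 1:2 compound dilution series. Bright-Glo luminescence read on day 3; viability by CellTiter-Glo. Absolute IC50 determined.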

The Solubility is the concentration that dissolves in the medium under given conditions. Read a low Solubility as a poorly soluble substance. Regarding `CC(=O)N1CCC[C@]12CC=CCCCC1(CCCC=CCCCOC(=O)N3CC[C@@](C(=O)N[C@@H](Cc4ccccc4Cl)C(=O)N[C@@H](Cc4csc5ccccc45)C(=O)N[C@@H](CCC(N)=O)C(N)=O)(C3)NC(=O)[C@H]([C@@H](C)O)NC(=O)[C@H](Cc3ccccc3)NC(=O)[C@H](C)NC(=O)[C@H](C)NC(=O)[C@H](CN(CC(=O)O)CC(F)(F)F)NC(=O)[C@H](CC(=O)O)NC1=O)NC(=O)[C@H](CC(C)(C)C)NC(=O)[C@H](CC(=O)O)NC2=O` (stereo partly drawn) [I-922, Ac-PL3-Asp-Npg-B5-Asp-TfeGA-Ala-Ala-Phe-Thr-PyrS2-2C1F-BztA-Gln-NH2], in the series on Axin2 and Myc, the “expression of various nucleic acids such as Axin2 and Myc” value is “can effectively reduce expression”. Further, in the series on PLOD2 and LCOR, the “expression of beta-catenin-independent genes including beta-catenin-independent WNT target genes such as PLOD2 and LCOR” value is “do not significantly impact expression”. Further, the “expression in a report assay” value in the series with DLD1 is “can effectively reduce expression”. Further, the IC50 in series [1] (fluorescence polarization, beta-catenin, read-out: FP EC50) is 12 nM; in series [1] (read-out: beta-Catenin FP IC50) it was 12 nM; in series [2] (Peptide + ST-Protein (SAINT-Protein lipid), read-out: Nano-BRET Abs IC50), 1000 nM; in series [2] (Peptide only, read-out: Nano-BRET Abs IC50) it was 6000 nM; in series [2] (absolute IC50, read-out: NanoBRET Abs IC50), 2700 nM; in series [2] (read-out: NanoBRET Abs IC50), 2700 nM. For the same compound, the IC50 in series [2] (read-out: NanoBRET IC50) was determined as 2300 nM; in series [3] (Peptide + ST-Protein (SAINT-Protein lipid)), 200 nM; in series [3] (Peptide only) it was 5000 nM. The “CHI Log D” value in “CHI Log D procedure” is on record as 2.344. Besides, the “Solubility” value in “Solubility in PBS” stood at 32 µM (≈ 65.4 µg/mL).
